Source: ChEMBL document CHEMBL5715942, “A novel histone deacetylase 8 (HDAC8)-specific inhibitor PCI-34051 induces apoptosis in T-cell lymphomas” (Leukemia, 2008)
The source made the active and inactive calls. The rule behind the calls is not given here.

Assays:
Jurkat [1] = assay: Induction of apoptosis in human Jurkat cells assessed as increase in intracellular calcium level in presence of Iodo-1 by spectrofluorimetric analysis; assay type: functional, cell-based; conditions: dose 0.25-1 µM
J.gamma1 [2] = assay: Induction of apoptosis in human J.gamma1 cells assessed as increased intracellular calcium level at 1 uM in presence of Iodo-1 by spectrofluorimetric analysis; assay type: functional, cell-based
J.gamma1 [3] = assay: Induction of apoptosis in human J.gamma1 cells at 0.2 uM incubated for 24 hrs by Annexin-V staining based flow cytometry analysis relative to control; assay type: functional
Jurkat [4] = assay: Induction of apoptosis in human Jurkat cells assessed as increase in intracellular calcium level at 0.25 to 1 uM in presence of Iodo-1 and Ionomycin by spectrofluorimetric analysis; assay type: functional, cell-based; conditions: dose 0.25-1 µM
J.gamma1 [5] = assay: Induction of apoptosis in human J.gamma1 cells assessed as increased intracellular calcium level in presence of Iodo-1 and U73122 by spectrofluorimetric analysis; assay type: functional, cell-based
Jurkat [6] = assay: Induction of apoptosis in human Jurkat cells assessed as increased intracellular calcium level in presence of Iodo-1 and U73122 by spectrofluorimetric analysis; assay type: functional, cell-based
J.gamma1 [7] = assay: Induction of apoptosis in human J.gamma1 cells assessed as increased intracellular calcium level at 1 uM in presence of Iodo-1 and Ionomycin by spectrofluorimetric analysis; assay type: functional, cell-based

Question: Which results are given for `C/C=C(/C)C(=O)O[C@H]1C(C)=C2[C@H]([C@@H]1OC(=O)CCCCCCC)[C@@](C)(OC(C)=O)C[C@H](OC(=O)CCC)[C@@]1(O)[C@H]2OC(=O)[C@@]1(C)O` [THAPSIGARGIN]?
Answer: Activity (Jurkat [1]): Dose-Dependent Effect; Activity (J.gamma1 [2]): Active; Activity (J.gamma1 [3]): 12%; Activity (Jurkat [4]): Active; Activity (J.gamma1 [5]): Active; Activity (Jurkat [6]): Active; Activity (J.gamma1 [7]): Active
